Here are results for 6 compounds from patent publication US20200360332A1, “COMPOUND FOR USE IN THE INCREASING OF MENTAL CAPACITY” (LEIBNIZ-INSTITUT FUER NEUROBIOLOGIE (LIN) STIFTUNG DES …, priority 2017, published 2020).

Experiment [1] deals with Drosophila melanogaster larvae. Put plainly: Learning experiment E (scent/fructose reward) with Drosophila melanogaster larvae raised on feed mash containing the compound. The format is in vivo. The settings on record: for improvement in learning capability compared with FSE-20 (summary statement): Drosophila larvae, effect of FSE-20>FSE-16>>FSE-8; for learning and memory capability P vs control K (Example 2): 7.1×10^−7 M (700 nM) final concentration in feed mash. As to the method: Depicted in FIG. 1A is an overview of a learning experiment E with Drosophila melanogaster larvae. […] One group represents the control group K, which was raised with standard feed mash, and the three other groups were each raised with different concentrations of FSE-20 (7.1×10^−8, 7.1×10^−7, and 7.1×10^−6[M] FSE-20) in the feed mash. After 5 days (arrow with “5d”), the learning experiment E was carried out. In the learning experiment E, the animals were each subjected to one of two inverse training regimens A and then subjected to a test B. The first group I was presented in training A with a first scent with the feed reward (fructose), while a second scent was presented alone (first scent+/second scent). In FIG. 1A, the first scent is depicted as a white square and the second scent as a black square. […] The second group II was trained inversely (first scent/second scent+). In test B of the learning experiment E, it was subsequently examined whether the larvae of the two groups I, II prefer the first scent or the second scent in a selection situation and thus their learning and memory capability (performance index) P was determined. Shown in FIG. 2A is an overview with the compounds used in this example as additions to the feed mash. One group of the Drosophila melanogaster larvae was the control group K, which was raised with standard feed mash. Furthermore, one group was raised with FSE-20 in a concentration of 7.1×10^−7 M in the feed mash. The other groups were raised with a concentration of 7.1×10^−7 M of the different FSE-20 derivatives in the feed mash. These FSE-20 derivatives comprise FSE-8, FSE-12, FSE-16, 4OH-ZSE-20, and DH-FSE-20. After five days (arrow with “5d”), the Drosophila melanogaster larvae were tested in the learning experiment E, as described in Example 1.

The subject of experiment [2] is hippocampal CA1 mouse cells. Put plainly: Ex vivo patch-clamp electrophysiological recordings on hippocampal CA1 pyramidal cells. In kind it is cell-based, mice. The settings on record: for number of action potentials vs control K: current intensities of 40 to 440 pA. The method, then:
The patch-clamp method was carried out on whole CA1 pyramidal cells from “acute” (freshly prepared) hippocampus slices of four-to-six-week-old male mice in order to measure the effects of FSE-20 on neuronal excitability.
Shown are the action potentials of the control K as well as those of the cells treated with FSE-20.
Depicted in FIG. 5B is a graphic illustration in which the number of action potentials is shown in relation to the injected current intensity (pA) of the differently treated cells and of the control group K.
In general terms: The patch-clamp technique gives a direct electrical read-out from membranes.

In experiment [3] the test system is mice. As to the kind of experiment: Learning experiment E in mice (conditioned fear, freezing) after intraperitoneal injection. In kind it is in vivo. The settings on record: 6 mg/kg i.p. prior to training. The method, then: In order to determine the effect of FSE-20 on the learning and memory capability P in 3- to 4-month-old mice, the animals underwent intraperitoneal injection with an FSE-20 solution (6 mg/kg body weight) prior to the training A. In the learning experiment E on the next day, the animals were placed in a specific environment during the training A, while the mice were subjected at the same time to an aversive electrical stimulus (lightning symbol). Subsequently, in the first test B-1 one day later (1 d), the nonspecific fear reaction (freezing) F was measured in a neutral environment, that is, in an environment that was new for the animals. In the second test B-2, two hours (2 h) after the first test B-1, the fear reaction in the environment was measured, in that the animals were presented with the electrical stimulus during the training A (conditioned environment).
Shown in FIG. 4B is a graphic illustration that summarizes the results of the learning experiment E on mice. […] The first span of time of the second test comprises the 1st-5th minute and the second span of time comprises the 6th-10th minute. The result of the first span of time is represented as black bars and the result of the second span of time is represented as white bars with black longitudinal stripes.

The test system of experiment [4] is older Drosophila melanogaster flies. Put plainly: Learning experiment E with mature, older Drosophila melanogaster flies fed FSE-20. In kind it is in vivo. As to the method: In this experiment, the flies were divided into two groups, a control group K, which was fed with standard feed, and a test group, for which FSE-20 was added to the feed. The concentration of FSE-20in the feed was 7.1×10^−7 M. The flies were tested in a learning experiment E, corresponding to the principle of Example 1, 15 days (arrow with “15d”) after the adult animals had hatched.

The structures appear in SMILES notation.

As to `CCCCCCCCCCCCCCCCCCCCOC(=O)/C=C/c1ccc(O)cc1` [4OH-ZSE-20, icosyl (2E)-3-(4-hydroxyphenyl)prop-2-enoate], the “improvement in learning capability compared with FSE-20 (summary statement)” value in experiment [1] was “weaker, but still marked activity”. The “learning and memory capability P vs control K (Example 2)” value in experiment [1] (larvae, 5 days) is “slight increase”.

Take `CCCCCCCCCCCCCCCCCCCCOC(=O)CCc1ccc(O)c(OC)c1` [DH-FSE-20, icosyl 3-(4-hydroxy-3-methoxyphenyl)propanoate]: the “improvement in learning capability compared with FSE-20 (summary statement)” value in experiment [1] was “less pronounced”. Moreover, the “learning and memory capability P vs control K (Example 2)” value in experiment [1] (larvae, 5 days) is “increases learning and memory”.

On to `CCCCCCCCOC(=O)/C=C/c1ccc(O)c(OC)c1` [FSE-8, octyl (2E)-3-(4-hydroxy-3-methoxyphenyl)prop-2-enoate], for which the “improvement in learning capability compared with FSE-20 (summary statement)” value in experiment [1] is reported as “less pronounced”. Further, the “learning and memory capability P vs control K (Example 2)” value in experiment [1] (larvae, 5 days) was “increases the learning and memory capability P”.

As for `CCCCCCCCCCCCOC(=O)/C=C/c1ccc(O)c(OC)c1` [FSE-12, dodecyl (2E)-3-(4-hydroxy-3-methoxyphenyl)prop-2-enoate], in experiment [1] (larvae, 5 days), the “learning and memory capability P vs control K (Example 2)” value is “slight increase”.

For the compound `CCCCCCCCCCCCCCCCOC(=O)/C=C/c1ccc(O)c(OC)c1` [FSE-16, hexadecyl (2E)-3-(4-hydroxy-3-methoxyphenyl)prop-2-enoate], the “improvement in learning capability compared with FSE-20 (summary statement)” value in experiment [1] was “less pronounced”. Moreover, the “learning and memory capability P vs control K (Example 2)” value in experiment [1] (larvae, 5 days) is “increases learning”.

Turning to `CCCCCCCCCCCCCCCCCCCCOC(=O)/C=C/c1ccc(O)c(OC)c1` [FSE-20, icosyl (2E)-3-(4-hydroxy-3-methoxyphenyl)prop-2-enoate], the “number of action potentials vs control K” value in experiment [2] (1 μM) and in experiment [2] (4 μM) was “increased significantly” each time. Also, the “excitability of pyramidal CA1 hippocampus cells” value in experiment [2] (ex vivo, summary statement) is reported as “increases in a dose-dependent manner”. The “fear behavior (freezing) F in second half (6th-10th minute) compared with first half (1st-5th minute)” value in experiment [3] (mice 3-4 months, second test B-2, conditioned environment) is given as “just as strongly pronounced”. Besides, in experiment [3] (mice), the “memory stability vs control” value is on record as “more stable memory over time”. The “learning and memory capability of larvae (summary statement)” value in experiment [1] (added to feed of larvae) is reported as “significantly in a dose-dependent manner”. Moreover, the “concentration at which an effect is seen” value in experiment [1] (in feed mash) was determined as 700 nM. Besides, in experiment [1] (larvae, 700 nM in feed mash, 5 days), the “improvement of learning and memory capability P” value is given as “approximately 50%”. Moreover, the “learning and memory capability P vs control K (Example 2)” value in experiment [1] (larvae, 5 days) is reported as “marked increase”. The “learning and memory capability P (performance index) vs control K” value in experiment [1] (larvae, 7.1×10^−8, 7.1×10^−7 or 7.1×10^−6 M in feed mash, 5 days) is “increased”. Further, the “learning and memory capability P” value in experiment [1] (larvae, very high concentrations starting at 7 μM in feed mash, 5 days) is “declines once again”; in experiment [1] (larvae, very low concentration, 70 nM in feed mash, 5 days), “increase in learning tendency”. For the same compound, the “improvement of learning and memory capability P in older animals” value in experiment [4] (7.1×10^−7 M in feed, tested 15 days after hatching) is listed as “approximately 50%”. Moreover, in experiment [4] (FSE-20 in feed), the “learning capability of older flies (summary statement)” value is listed as “doubled”.
